Patent US11572590B2, “Methods for evaluating tumor cell spheroids using 3D microfluidic cell culture device” (Dana-Farber Cancer Institute, Inc., priority 2017, dated 2023)
Read-outs that look alike come from different tables or passages of the source.

Columns and labels:
Assay in all cases: SelectScreen Kinase Profiling, single point inhibition and IC50 for off-target kinases
Format in all cases: biochemical
off-target kinases [1] = biological target: off-target kinases (Homo sapiens, UniProt Q9Y4K4); details: MAP4K5 (KHS1), ZLYTE, ATP Km app
off-target kinases [2] = biological target: off-target kinases (Homo sapiens, UniProt Q06187); details: BTK, ZLYTE, ATP Km app
off-target kinases [3] = biological target: off-target kinases (Homo sapiens, UniProt P42345); details: FRAP1 (mTOR), ZLYTE, ATP Km app
off-target kinases [4] = biological target: off-target kinases (Homo sapiens, UniProt Q02763); details: TEK (Tie2), ZLYTE, ATP Km app
off-target kinases [5] = biological target: off-target kinases (Homo sapiens, UniProt Q9Y243); details: AKT3 (PKB gamma), ZLYTE, ATP Km app
off-target kinases [6] = biological target: off-target kinases (Homo sapiens, UniProt P00519, Y253F); details: ABL1 Y253F, ATP Km app, ZLYTE
off-target kinases [7] = biological target: off-target kinases (Homo sapiens, UniProt P05129); details: PRKCG (PKC gamma); Cmpd1 1000 μM; ATP Km app; ZLYTE
off-target kinases [8] = biological target: off-target kinases (Homo sapiens, UniProt P49759); details: CLK1, ZLYTE, ATP Km app
off-target kinases [9] = biological target: off-target kinases (Homo sapiens, UniProt P22455); details: FGFR4, ZLYTE, ATP Km app
off-target kinases [10] = biological target: T1, off-target kinases (Homo sapiens, UniProt P52564, S207E/T211E); details: MAP2K6 (MKK6) S207E T211E (mutant), LanthaScreen Binding
T1 sequence (P52564 1-334 S207E/T211E): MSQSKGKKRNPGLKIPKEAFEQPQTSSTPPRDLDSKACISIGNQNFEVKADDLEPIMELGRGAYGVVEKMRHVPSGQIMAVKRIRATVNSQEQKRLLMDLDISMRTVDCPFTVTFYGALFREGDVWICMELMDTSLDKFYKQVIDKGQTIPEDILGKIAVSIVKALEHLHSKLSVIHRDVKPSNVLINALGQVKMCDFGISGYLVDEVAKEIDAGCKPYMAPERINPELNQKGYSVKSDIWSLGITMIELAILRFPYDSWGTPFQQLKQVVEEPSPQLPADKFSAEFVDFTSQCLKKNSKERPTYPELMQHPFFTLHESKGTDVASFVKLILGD

off-target kinases [11] = biological target: off-target kinases (Homo sapiens, UniProt P05771); details: PRKCB1 (PKC beta I), ZLYTE, ATP Km app
off-target kinases [12] = biological target: off-target kinases (Homo sapiens, UniProt P16234, T674I); details: PDGFRA T674I, mutant y, ZLYTE, ATP Km app
off-target kinases (Homo sapiens, UniProt P16234, T674I), sequence (P16234 24-1089 T674I): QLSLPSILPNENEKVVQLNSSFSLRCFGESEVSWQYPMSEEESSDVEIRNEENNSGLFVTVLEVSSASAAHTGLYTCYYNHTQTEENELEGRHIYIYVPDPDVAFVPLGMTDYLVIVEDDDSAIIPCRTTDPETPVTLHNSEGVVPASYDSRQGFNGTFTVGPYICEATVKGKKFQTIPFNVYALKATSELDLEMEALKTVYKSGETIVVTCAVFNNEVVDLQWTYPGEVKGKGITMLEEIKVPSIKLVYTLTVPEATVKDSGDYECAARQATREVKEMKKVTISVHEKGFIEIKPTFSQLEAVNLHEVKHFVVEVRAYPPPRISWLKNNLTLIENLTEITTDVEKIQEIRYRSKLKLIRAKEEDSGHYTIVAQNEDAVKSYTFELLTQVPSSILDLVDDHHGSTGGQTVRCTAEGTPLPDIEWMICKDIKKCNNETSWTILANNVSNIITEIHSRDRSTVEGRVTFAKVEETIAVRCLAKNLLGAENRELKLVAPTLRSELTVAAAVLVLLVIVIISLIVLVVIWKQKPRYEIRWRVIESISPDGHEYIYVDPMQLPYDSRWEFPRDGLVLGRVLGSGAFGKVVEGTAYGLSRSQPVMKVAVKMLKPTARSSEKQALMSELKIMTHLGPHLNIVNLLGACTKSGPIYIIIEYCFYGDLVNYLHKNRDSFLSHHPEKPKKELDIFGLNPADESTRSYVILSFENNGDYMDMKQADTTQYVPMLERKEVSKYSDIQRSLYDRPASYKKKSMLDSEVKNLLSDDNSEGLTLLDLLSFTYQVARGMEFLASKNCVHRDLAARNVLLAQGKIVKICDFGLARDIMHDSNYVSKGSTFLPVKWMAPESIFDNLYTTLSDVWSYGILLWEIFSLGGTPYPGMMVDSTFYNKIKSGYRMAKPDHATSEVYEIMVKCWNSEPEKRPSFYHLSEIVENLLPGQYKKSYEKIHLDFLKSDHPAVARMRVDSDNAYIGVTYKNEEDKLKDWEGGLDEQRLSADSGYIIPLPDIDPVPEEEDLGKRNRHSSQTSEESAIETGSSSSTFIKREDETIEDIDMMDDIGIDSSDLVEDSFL

off-target kinases (Homo sapiens, UniProt P49759), sequence (P49759 whole entry): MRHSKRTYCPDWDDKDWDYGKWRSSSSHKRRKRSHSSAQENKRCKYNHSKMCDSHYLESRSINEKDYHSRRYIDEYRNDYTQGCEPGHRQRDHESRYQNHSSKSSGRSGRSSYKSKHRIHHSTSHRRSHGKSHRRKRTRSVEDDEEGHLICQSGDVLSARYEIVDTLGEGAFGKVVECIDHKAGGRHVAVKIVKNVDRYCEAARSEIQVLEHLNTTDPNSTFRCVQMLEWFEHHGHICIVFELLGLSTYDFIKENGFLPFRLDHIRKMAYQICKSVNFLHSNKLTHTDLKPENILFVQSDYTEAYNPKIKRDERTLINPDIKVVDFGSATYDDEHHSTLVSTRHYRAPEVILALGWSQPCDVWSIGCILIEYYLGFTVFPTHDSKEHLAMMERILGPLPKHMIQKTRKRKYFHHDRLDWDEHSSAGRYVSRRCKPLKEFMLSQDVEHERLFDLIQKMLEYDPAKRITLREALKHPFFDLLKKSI
off-target kinases (Homo sapiens, UniProt Q9Y4K4), sequence (Q9Y4K4 whole entry): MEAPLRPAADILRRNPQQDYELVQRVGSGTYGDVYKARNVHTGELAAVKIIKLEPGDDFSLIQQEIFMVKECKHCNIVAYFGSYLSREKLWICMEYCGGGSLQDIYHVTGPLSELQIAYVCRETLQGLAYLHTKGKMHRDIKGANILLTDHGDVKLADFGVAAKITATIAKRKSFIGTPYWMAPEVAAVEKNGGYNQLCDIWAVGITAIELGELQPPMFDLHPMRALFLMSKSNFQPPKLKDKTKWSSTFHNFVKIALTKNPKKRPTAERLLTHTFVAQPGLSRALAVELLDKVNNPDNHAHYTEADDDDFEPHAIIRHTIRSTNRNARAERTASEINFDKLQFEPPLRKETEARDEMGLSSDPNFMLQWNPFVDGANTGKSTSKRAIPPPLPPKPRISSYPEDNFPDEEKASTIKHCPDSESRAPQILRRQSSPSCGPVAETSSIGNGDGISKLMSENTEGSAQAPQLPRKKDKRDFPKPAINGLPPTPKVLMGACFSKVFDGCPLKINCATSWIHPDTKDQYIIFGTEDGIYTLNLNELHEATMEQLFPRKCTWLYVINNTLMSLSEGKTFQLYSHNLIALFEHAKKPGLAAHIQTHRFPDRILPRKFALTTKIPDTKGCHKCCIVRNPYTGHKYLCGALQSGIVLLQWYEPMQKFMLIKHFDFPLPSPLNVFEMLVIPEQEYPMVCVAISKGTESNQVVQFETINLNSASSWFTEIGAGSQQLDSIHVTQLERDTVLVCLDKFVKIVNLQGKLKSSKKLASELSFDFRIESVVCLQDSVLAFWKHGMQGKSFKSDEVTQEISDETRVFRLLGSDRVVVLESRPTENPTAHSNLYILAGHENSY
off-target kinases (Homo sapiens, UniProt P05771), sequence (P05771 whole entry): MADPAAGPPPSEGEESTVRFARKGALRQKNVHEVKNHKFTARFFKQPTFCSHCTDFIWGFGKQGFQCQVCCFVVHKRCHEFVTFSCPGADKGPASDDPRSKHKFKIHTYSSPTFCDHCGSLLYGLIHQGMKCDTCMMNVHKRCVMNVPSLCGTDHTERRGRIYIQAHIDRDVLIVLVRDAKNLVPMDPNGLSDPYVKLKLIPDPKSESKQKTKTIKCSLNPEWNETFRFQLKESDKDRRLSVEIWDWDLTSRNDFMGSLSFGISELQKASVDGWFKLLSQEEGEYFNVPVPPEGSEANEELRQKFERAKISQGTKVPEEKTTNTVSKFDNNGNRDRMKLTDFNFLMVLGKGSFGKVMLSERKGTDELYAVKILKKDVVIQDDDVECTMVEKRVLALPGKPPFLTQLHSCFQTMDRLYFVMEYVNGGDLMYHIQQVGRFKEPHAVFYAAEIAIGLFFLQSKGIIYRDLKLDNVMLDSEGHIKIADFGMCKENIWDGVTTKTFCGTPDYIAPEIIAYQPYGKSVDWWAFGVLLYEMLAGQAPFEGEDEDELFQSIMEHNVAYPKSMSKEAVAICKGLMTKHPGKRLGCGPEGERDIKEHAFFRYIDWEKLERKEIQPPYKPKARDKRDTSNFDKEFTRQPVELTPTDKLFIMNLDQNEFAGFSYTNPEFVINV
off-target kinases (Homo sapiens, UniProt Q9Y243), sequence (Q9Y243 whole entry): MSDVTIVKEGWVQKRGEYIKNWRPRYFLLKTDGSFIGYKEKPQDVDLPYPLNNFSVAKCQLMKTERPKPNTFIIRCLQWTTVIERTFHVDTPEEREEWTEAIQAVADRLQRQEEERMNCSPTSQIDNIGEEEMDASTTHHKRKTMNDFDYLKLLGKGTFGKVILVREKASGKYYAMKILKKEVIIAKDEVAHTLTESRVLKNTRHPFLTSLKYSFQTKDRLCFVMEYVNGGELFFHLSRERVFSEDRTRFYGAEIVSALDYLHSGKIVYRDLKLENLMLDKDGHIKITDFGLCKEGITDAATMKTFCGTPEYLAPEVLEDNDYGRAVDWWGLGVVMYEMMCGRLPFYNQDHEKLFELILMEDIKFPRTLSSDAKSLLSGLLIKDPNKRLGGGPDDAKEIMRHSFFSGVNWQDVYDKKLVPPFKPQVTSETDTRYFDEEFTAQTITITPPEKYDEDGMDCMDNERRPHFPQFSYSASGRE
off-target kinases (Homo sapiens, UniProt P22455), sequence (P22455 22-802): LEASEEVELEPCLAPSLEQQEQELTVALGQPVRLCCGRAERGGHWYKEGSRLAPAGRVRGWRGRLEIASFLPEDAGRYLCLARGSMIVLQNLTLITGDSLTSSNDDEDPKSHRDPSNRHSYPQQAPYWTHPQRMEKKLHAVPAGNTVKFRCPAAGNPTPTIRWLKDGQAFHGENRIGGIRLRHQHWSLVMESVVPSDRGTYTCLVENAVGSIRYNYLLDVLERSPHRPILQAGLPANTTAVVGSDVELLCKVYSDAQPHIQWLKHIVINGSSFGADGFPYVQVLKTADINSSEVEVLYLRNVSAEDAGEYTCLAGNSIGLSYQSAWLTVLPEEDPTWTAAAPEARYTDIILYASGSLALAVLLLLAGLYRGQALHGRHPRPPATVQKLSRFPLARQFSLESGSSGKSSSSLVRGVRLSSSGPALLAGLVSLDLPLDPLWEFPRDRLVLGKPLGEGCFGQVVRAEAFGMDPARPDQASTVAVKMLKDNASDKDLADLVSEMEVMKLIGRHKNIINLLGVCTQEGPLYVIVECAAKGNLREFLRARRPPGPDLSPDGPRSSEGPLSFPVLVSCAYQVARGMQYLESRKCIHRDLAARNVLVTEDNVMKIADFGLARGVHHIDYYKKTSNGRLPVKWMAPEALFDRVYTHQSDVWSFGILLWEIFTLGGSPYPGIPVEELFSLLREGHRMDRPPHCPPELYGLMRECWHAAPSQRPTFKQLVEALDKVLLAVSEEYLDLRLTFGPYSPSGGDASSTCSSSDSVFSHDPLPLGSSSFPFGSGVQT

N#Cc1cc(-c2ncnc(Nc3ccc(N4CCN(C5COC5)CC4)cc3)n2)ccc1OC1CCOCC1 [Compound 1, 5-(4-((4-(4-(oxetan-3-yl)piperazin-1-yl)phenyl)amino)-1,3,5-triazin-2-yl)-2-((tetrahydro-2H-pyran-4-yl)oxy)benzonitrile]
inhibition (off-target kinases [1]; read-out: % Inhibition 1): 11%
inhibition (off-target kinases [1]; read-out: % Inhibition 2): 12%
inhibition (off-target kinases [1]; read-out: % Inhibition Avg): 12%
inhibition (off-target kinases [2]; read-out: % Inhibition 1): 3%
inhibition (off-target kinases [2]; read-out: % Inhibition 2): 6%
inhibition (off-target kinases [2]; read-out: % Inhibition Avg): 5%
inhibition (off-target kinases [3]; read-out: % Inhibition 1): 2%
inhibition (off-target kinases [3]; read-out: % Inhibition 2): 12%
inhibition (off-target kinases [3]; read-out: % Inhibition Avg): 7%
inhibition (off-target kinases [4]; read-out: % Inhibition 1): 11%
inhibition (off-target kinases [4]; read-out: % Inhibition 2): 17%
inhibition (off-target kinases [4]; read-out: % Inhibition Avg): 14%
inhibition (off-target kinases [5]; read-out: % Inhibition 1): 3%
inhibition (off-target kinases [5]; read-out: % Inhibition 2): 1%
inhibition (off-target kinases [5]; read-out: % Inhibition Avg): 2%
inhibition (off-target kinases [6]; read-out: % Inhibition 1): 61%
inhibition (off-target kinases [6]; read-out: % Inhibition 2): 48%
inhibition (off-target kinases [6]; read-out: % Inhibition Avg): 54%
% Inhibition 1 (off-target kinases [7]): −9%
% Inhibition 2 (off-target kinases [7]): −1%
% Inhibition Avg (off-target kinases [7]): −5%
inhibition (off-target kinases [8]; read-out: % Inhibition 1): 33%
inhibition (off-target kinases [8]; read-out: % Inhibition 2): 34%
inhibition (off-target kinases [8]; read-out: % Inhibition Avg): 33%
inhibition (off-target kinases [9]; read-out: % Inhibition 1): 7%
inhibition (off-target kinases [9]; read-out: % Inhibition 2): -2%
inhibition (off-target kinases [9]; read-out: % Inhibition Avg): 3%
inhibition (off-target kinases [10]; read-out: % Inhibition 1): 5%
inhibition (off-target kinases [10]; read-out: % Inhibition 2): 5%
inhibition (off-target kinases [10]; read-out: % Inhibition Avg): 5%
inhibition (off-target kinases [11]; read-out: % Inhibition 1): 5%
inhibition (off-target kinases [11]; read-out: % Inhibition 2): 3%
inhibition (off-target kinases [11]; read-out: % Inhibition Avg): 4%
inhibition (off-target kinases [12]; read-out: % Inhibition 1): 40%
inhibition (off-target kinases [12]; read-out: % Inhibition 2): 32%
inhibition (off-target kinases [12]; read-out: % Inhibition Avg): 36%
